In ChEMBL document CHEMBL3352051, “Isolation, structure determination and cytotoxicity studies of tryptophan alkaloids from an Australian marine sponge Hyrtios sp” (Bioorg Med Chem Lett, 2014):

What was measured:
[1] = system: LNCaP; test: Cytotoxicity against human LNCAP cells after 72 hrs by Alamar Blue assay; assay type: functional, cell-based
[2] = system: LNCaP; test: Selectivity index, ratio of IC50 for human NFF cells to IC50 for human LNCaP cells; assay type: functional
[3] = system: NFF; test: Cytotoxicity against human NFF cells after 72 hrs by Alamar Blue assay; assay type: cell-based
[4] = Antiproliferative activity against human OVCAR3 cells; assay type: functional, cell-based; conditions: OVCAR-3
[5] = system: Malme-3M; test: Antiproliferative activity against human MALME-3M cells; assay type: functional, cell-based
[6] = system: MCF7; test: Antiproliferative activity against human MCF7 cells; assay type: functional, cell-based

Compound: O=C(O)c1ccccc1-n1ccc2c([nH]c3ccccc32)c1=O
- IC50 [1]: 44.9 µM
- Ratio IC50 [2]: 1.06
- IC50 [3]: 47.6 µM

Compound: O=C1c2ccccc2-[n+]2ccc3c([nH]c4ccccc43)c21 [FASCAPLYSIN]
- EC50 [4]: 0.16 µg/mL
- IC50 [1]: 0.54 µM
- EC50 [5]: 0.03 µg/mL
- Ratio IC50 [2]: 0.63
- IC50 [3]: 0.339 µM
- EC50 [6]: 0.14 µg/mL

Compound: O=C(O)c1ccccc1-[n+]1ccc2c(c1)[nH]c1ccccc12.[Cl-] [RETICULATATE]
- IC50 [1]: 25.9 µM
- Ratio IC50 [2]: 0.77
- IC50 [3]: 19.8 µM

Compound: O=C1c2ccccc2-n2c1c1[nH]c3ccccc3c1cc2=O
- IC50 [1]: 22.9 µM
- Ratio IC50 [2]: 1.4
- IC50 [3]: 32.1 µM

Compound: COc1cccc2c1C(=O)c1c(O)c3c(c(O)c1C2=O)C[C@@](O)(C(=O)CO)C[C@@H]3O[C@H]1C[C@H](N)[C@H](O)[C@H](C)O1 [DOXORUBICIN]
- IC50 [1]: 0.0135 µM
- Ratio IC50 [2]: 8.97
- IC50 [3]: 0.126 µM
